Results on one substance are retold here after patent publication US6462017B1, “Method of reducing side effects of chemotherapy in cancer patients” (SciClone Pharmaceuticals, Inc., priority 2000, dated 2002).

One series relates to cancer patients. Description: Side effects of thymosin α1 administration. It is filed as in vivo, humans. Conditions: administration in conjunction with antineoplastics.
The next series concerns VIP receptor. To be noted: in vitro; cited from earlier work.
Series [1] concerns cancer patients (lung, gastric, breast cancer) receiving chemotherapy. Nature of the series: Nausea and vomiting classified according to WHO criteria, same trial. It is filed as in vivo, humans. Conditions: Cohort A with Tα1, n 54, P < 0.0005. How it is done:
(§1) Method: A randomized crossover open label trial was performed. A total of sixty patients, twenty with lung cancer, twenty with gastric cancer and twenty with breast cancer were studied during two complete cycles of chemotherapy. All patients were randomized into two groups. In group 1, patients received chemotherapy with thymosin α1 in the first cycle, and without thymosin α1 in the second cycle. While patients in group 2 received chemotherapy without thymosin α1 in the first cycle, and with thymosin α1 in the second cycle. The patients were treated as follows:
(§2) Twenty lung cancer patients were treated with 100 mg of Etoposide IV on days 1-5 and 40 mg of Cisplatin I.V. on days 1-3 in a 21 day cycle.
(§3) Twenty gastric cancer patients were treated with 100 mg of Etoposide IV on days 1-5, 30 mg/m^2 Calcium Leucovorin I.V. on days 1-5 and 500 mg/m^2 5-Fluorouricil (5-FU) I.V. on days 1-5.
(§4) Twenty breast cancer patients were treated with 5-Fluorouricil 500 mg/m^2, Adriamycin I.V. 30 mg/m^2 I.V. on day 1 and cyclophosphamide 500 mg/m^2 I.V. on day 1.
(§5) A mild anti-emetic consisting of 20 mg metoclopamide, I.M. and 5 mg Dexamethasone I.V. were given to all patients on days 1-5. All subjects on thymosin received six injections of 1.6 mg s.c. Tα1 on each of the four days immediately preceding the chemotherapy and on days two and four following chemotherapy. All patients who have completed the two cycles of chemotherapy, then were reallocated into two cohorts, A and B. Cohort A are patients with Tα1, and Cohort B are patients without Tα1.

Series [2] shares this test system. Nature of the series: Quality of life scored scale, randomized crossover open label trial of chemotherapy cycles with and without Tα1. It is filed as in vivo, humans. How it is done:
as §1, §2, §3, §4, §5
Analysis: Quality of life was analyzed using a scored scale for (1) loss of appetite, (2) loss of sleep, (3) fatigue, (4) reduction in daily activity, (5) decline in overall feeling, (6) depression and (7) nausea and vomiting. Maximum total score was 35 points.

Where no end group is shown, it is not given here.

On to “thymosin α1 (SDAAVDTSSEITTKDLKEKKEVVEEAEN; not fully specified; ends and bridges not checked; UniProt P06454 2-29, looked up) [Tα1, acidic polypeptide isolated from thymosin fraction 5, an immunomodulator that acts primarily by enhancing T-cell function]”, for which, in the series on cancer patients, the “Side effects of thymosin α1” value is listed as “does not appear to result in any side effects”. In addition, the VIP receptor binding entry in the series with VIP receptor is listed as “has a VIP receptor binding effect”. Moreover, the “Nausea and vomiting WHO Gr. 4, number of patients” value in series [1] (without Tα1 0) is given as 0. Besides, the “Nausea and vomiting WHO Grade 0, number of patients” value in series [1] (without Tα1 4/53) is on record as 7/55. In addition, the “Nausea and vomiting WHO Gr. 3, number of patients” value in series [1] (without Tα1 11) is recorded as 1. Moreover, in series [1] (without Tα1 19), the “Nausea and vomiting WHO Gr. 1, number of patients” value is 33; the “Nausea and vomiting WHO Gr. 2, number of patients” value amounted to 13. In addition, in series [2] (addition of Tα1 to chemotherapy cycles compared with cycles without Tα1), the “Effect on quality of life scores” value is “significantly increases the quality of life scores”. In addition, in series [2] (cycles with Tα1 (1.6 mg s.c., six injections) vs. cycles without Tα1 3.70, p = 0.0001), the “Fatigue, quality of life score” value is given as 4.05 vs. 3.70 p = 0.0001. Further, in series [2] (cycles with Tα1 (1.6 mg s.c., six injections) vs. cycles without Tα1 3.72, p = 0.003), the “Depression, quality of life score” value is reported as 4.01 vs. 3.72 p = 0.003. Moreover, the “Reduction in Daily Activity, quality of life score” value in series [2] (cycles with Tα1 (1.6 mg s.c., six injections) vs. cycles without Tα1 3.84, p = 0.0001) is reported as 4.12 vs. 3.84 p = 0.0001. Also, the “Nausea and Vomiting, quality of life score” value in series [2] (cycles with Tα1 (1.6 mg s.c., six injections) vs. cycles without Tα1 3.93, p = 0.001) is recorded as 4.29 vs. 3.93 p = 0.001. Further, the “Decline in Overall Feeling, quality of life score” value in series [2] (cycles with Tα1 (1.6 mg s.c., six injections) vs. cycles without Tα1 3.94, p = 0.0001) stood at 4.32 vs. 3.94 p = 0.0001. Also, the “Loss of Appetite, quality of life score” value in series [2] (cycles with Tα1 (1.6 mg s.c., six injections) vs. cycles without Tα1 3.99, p = 0.0001) is reported as 4.33 vs. 3.99 p = 0.0001. Also, the “Loss of Sleep, quality of life score” value in series [2] (cycles with Tα1 (1.6 mg s.c., six injections) vs. cycles without Tα1 4.10, p = 0.002) was 4.41 vs. 4.10 p = 0.002.
